Experimental data from US9447084B2, “Antiparisitic and pesticidal isoxazoline compounds” (MERIAL LIMITED, priority 2013, dated 2016).

Test system: Ctenocephalides felis
Assay: Efficacy of compounds against fleas following ingestion (membrane feeding on treated bovine blood)
Type: in vivo
Settings: 10 adult Ctenocephalides felis feeding on treated bovine blood; assessment at 72 hours after application vs untreated controls
Experimental: A cylindrical test container was filled with 10 adult Ctenocephalides felis. A cylindrical well was closed on one end with a self-sealing flexible film and placed on top of the test container in such a position that the fleas could pierce the film and feed on the contents of the cylinder. The test compound solution was then pipetted into bovine blood and added to the well. The container part with the Ctenocephalides felis was held at 20-22° C. and 40-60% relative humidity while the well part containing the treated blood was held at 37° C. and 40-60% relative humidity. Assessment was performed at 72 hours after application in comparison with untreated controls. […] In this regard, the efficacy of the compounds of the invention having at least one carbonyl group in Ring D against fleas was compared with the efficacy of corresponding compounds that are not substituted with a carbonyl group in Ring D using the method of Example 19.

| Structure (SMILES) | EC50 |
| --- | --- |
| Cc1cc(C2=NOC(c3cc(Cl)cc(C(F)(F)F)c3)(C(F)(F)F)C2)ccc1C(=O)N1CCN(CCC(F)(F)F)C1 (stereo not drawn) [Compound 100] | ≤ 10 mg/L |
| Cc1cc(C2=NOC(c3cc(Cl)cc(C(F)(F)F)c3)(C(F)(F)F)C2)ccc1C(=O)N1CC(=O)N(CS(C)(=O)=O)C1 (stereo not drawn) [Compound 114, 1-[(4-[5-[3-Chloro-5-(trifluoromethyl)phenyl]-5-(trifluoromethyl)-4,5-dihydro-1,2-oxazol-3-yl]-2-methylphenyl)carbonyl]-3-(methanesulfonylmethyl)imidazolidin-4-one] | ≤ 10 mg/L |
| CCCN1C(=O)CN(C(=O)c2ccc(C3=NOC(c4cc(Cl)cc(C(F)(F)F)c4)(C(F)(F)F)C3)cc2C(F)(F)F)CC1=O (stereo not drawn) [Compound 95, 4-[(4-[5-[3-chloro-5-(trifluoromethyl)phenyl]-5-(trifluoromethyl)-4,5-dihydro-1,2-oxazol-3-yl]-2-(trifluoromethyl)phenyl)carbonyl]-1-propylpiperazine-2,6-dione] | ≤ 10 mg/L |
| Cc1cc(C2=NOC(c3cc(Cl)cc(C(F)(F)F)c3)(C(F)(F)F)C2)ccc1C(=O)NN1CCCN(CC(F)(F)F)C1=O (stereo not drawn) [Compound 70] | ≤ 1 mg/L |
| O=C(NN1CCCN(CC(F)(F)F)C1=O)c1ccc(C2=NOC(c3cc(Cl)cc(Cl)c3)(C(F)(F)F)C2)cc1C(F)(F)F (stereo not drawn) [Compound 91, 4-[5-(3,5-dichlorophenyl)-5-(trifluoromethyl)-4,5-dihydro-1,2-oxazol-3-yl]-N-[2-oxo-3-(2,2,2-trifluoroethyl)-1,3-diazinan-1-yl]-2-(trifluoromethyl)benzamide] | ≤ 1 mg/L |
| Cc1cc(C2=NOC(c3cc(Cl)cc(C(F)(F)F)c3)(C(F)(F)F)C2)ccc1C(=O)N1CC(=O)N(CCC(F)(F)F)C1 (stereo not drawn) [Compound 80, 1-[(4-[5-[3-chloro-5-(trifluoromethyl)phenyl]-5-(trifluoromethyl)-4,5-dihydro-1,2-oxazol-3-yl]-2-methylphenyl)carbonyl]-3-(3,3,3-trifluoropropyl)imidazolidin-4-one] | ≤ 0.1 mg/L |
| O=C1CN(C(=O)c2ccc(C3=NOC(c4cc(Cl)cc(C(F)(F)F)c4)(C(F)(F)F)C3)cc2CC(F)(F)F)CN1CCC(F)(F)F (stereo not drawn) [Compound 99, 1-[(4-[5-[3-chloro-5-(trifluoromethyl)phenyl]-5-(trifluoromethyl)-4,5-dihydro-1,2-oxazol-3-yl]-2-(2,2,2-trifluoroethyl)phenyl)carbonyl]-3-(3,3,3-trifluoropropyl)imidazolidin-4-one] | ≤ 1 mg/L |
| CCN1CCN(C(=O)c2ccc(C3=NOC(c4cc(Cl)cc(Cl)c4)(C(F)(F)F)C3)cc2C)C1=O (stereo not drawn) [Compound 54] | ≤ 10 mg/L |
| Cc1cc(C2=NOC(c3cc(Cl)cc(Cl)c3)(C(F)(F)F)C2)ccc1C(=O)NN1CCN(CC(F)(F)F)C1=O (stereo not drawn) [Compound 67, 4-[5-(3,5-dichlorophenyl)-5-(trifluoromethyl)-4,5-dihydro-1,2-oxazol-3-yl]-2-methyl-N-[2-oxo-3-(2,2,2-trifluoroethyl)imidazolidin-1-yl]benzamide] | ≤ 1 mg/L |
| O=C1CN(C(=O)c2ccc(C3=NOC(c4cc(Cl)cc(Cl)c4)(C(F)(F)F)C3)cc2C(F)(F)F)CN1CC(F)(F)F (stereo not drawn) [Compound 93, 1-([4-[5-(3,5-dichlorophenyl)-5-(trifluoromethyl)-4,5-dihydro-1,2-oxazol-3-yl]-2-(trifluoromethyl)phenyl]carbonyl)-3-(2,2,2-trifluoroethyl)imidazolidin-4-one] | ≤ 1 mg/L |
| Cc1cc(C2=NOC(c3cc(Cl)c(F)c(Cl)c3)(C(F)(F)F)C2)ccc1C(=O)N1CC(=O)N(CCC(F)(F)F)C1 (stereo not drawn) [Compound 115, 1-([4-[5-(3,5-dichloro-4-fluorophenyl)-5-(trifluoromethyl)-4,5-dihydro-1,2-oxazol-3-yl]-2-methylphenyl]carbonyl)-3-(3,3,3-trifluoropropyl)imidazolidin-4-one] | ≤ 0.1 mg/L |
| O=C(c1ccc(C2=NOC(c3cc(Cl)cc(Cl)c3)(C(F)(F)F)C2)cc1C(F)(F)F)N1CC(=O)N(CC(F)(F)F)C(=O)C1 (stereo not drawn) [Compound 92, 4-([4-[5-(3,5-dichlorophenyl)-5-(trifluoromethyl)-4,5-dihydro-1,2-oxazol-3-yl]-2-(trifluoromethyl)phenyl]carbonyl)-1-(2,2,2-trifluoroethyl)piperazine-2,6-dione] | ≤ 10 mg/L |
| O=C(NN1CCCN(CC(F)(F)F)C1=O)c1ccc(C2=NOC(c3cc(Cl)cc(C(F)(F)F)c3)(C(F)(F)F)C2)cc1C(F)(F)F (stereo not drawn) [Compound 97, 4-[5-[3-chloro-5-(trifluoromethyl)phenyl]-5-(trifluoromethyl)-4,5-dihydro-1,2-oxazol-3-yl]-N-[2-oxo-3-(2,2,2-trifluoroethyl)-1,3-diazinan-1-yl]-2-(trifluoromethyl)benzamide] | ≤ 1 mg/L |
| Cc1cc(C2=NOC(c3cc(Cl)cc(C(F)(F)F)c3)(C(F)(F)F)C2)ccc1C(=O)N1CC(=O)N(CC(F)(F)F)C1 (stereo not drawn) [Compound 71, 1-[(4-[5-[3-chloro-5-(trifluoromethyl)phenyl]-5-(trifluoromethyl)-4,5-dihydro-1,2-oxazol-3-yl]-2-methylphenyl)carbonyl]-3-(2,2,2-trifluoroethyl)imidazolidin-4-one] | ≤ 0.1 mg/L |
| O=C1CN(C(=O)c2ccc(C3=NOC(c4cc(Cl)cc(C(F)(F)F)c4)(C(F)(F)F)C3)c3ccccc23)CN1CCC(F)(F)F (stereo not drawn) [Compound 112, 1-[(4-[5-[3-chloro-5-(trifluoromethyl)phenyl]-5-(trifluoromethyl)-4,5-dihydro-1,2-oxazol-3-yl]naphthalen-1-yl)carbonyl]-3-(3,3,3-trifluoropropyl)imidazolidin-4-one] | ≤ 0.1 mg/L |
| O=C(NN1CCCN(CC(F)(F)F)C1=O)c1ccc(C2=NOC(c3cc(C(F)(F)F)cc(C(F)(F)F)c3)(C(F)(F)F)C2)cc1C(F)(F)F (stereo not drawn) [Compound 90, 4-[5-[3,5-bis(trifluoromethyl)phenyl]-5-(trifluoromethyl)-4,5-dihydro-1,2-oxazol-3-yl]-N-[2-oxo-3-(2,2,2-trifluoroethyl)-1,3-diazinan-1-yl]-2-(trifluoromethyl)benzamide] | ≤ 1 mg/L |
| O=C1CN(C(=O)c2ccc(C3=NOC(c4cc(Cl)cc(C(F)(F)F)c4)(C(F)(F)F)C3)cc2C(F)(F)F)CN1CC(F)(F)F (stereo not drawn) [Compound 96, 1-[(4-[5-[3-chloro-5-(trifluoromethyl)phenyl]-5-(trifluoromethyl)-4,5-dihydro-1,2-oxazol-3-yl]-2-(trifluoromethyl)phenyl)carbonyl]-3-(2,2,2-trifluoroethyl)imidazolidin-4-one] | ≤ 1 mg/L |
| O=C1CN(C(=O)c2ccc(C3=NOC(c4cc(Cl)cc(C(F)(F)F)c4)(C(F)(F)F)C3)cc2C(F)(F)F)CN1CCC(F)(F)F (stereo not drawn) [Compound 98, 1-[(4-[5-[3-chloro-5-(trifluoromethyl)phenyl]-5-(trifluoromethyl)-4,5-dihydro-1,2-oxazol-3-yl]-2-(trifluoromethyl)phenyl)carbonyl]-3-(3,3,3-trifluoropropyl)imidazolidin-4-one] | ≤ 1 mg/L |

Same assay, conditions: efficacy against fleas, method of Example 19; compounds with vs without carbonyl group in Ring D

| Structure (SMILES) | EC50 (ppm) |
| --- | --- |
| Cc1cc(C2=NOC(c3cc(Cl)cc(Cl)c3)(C(F)(F)F)C2)ccc1C(=O)N1CCNCC1 (stereo not drawn) [reference compound] | 1-10 ppm |
| Cc1cc(C2=NOC(c3cc(Cl)cc(Cl)c3)(C(F)(F)F)C2)ccc1C(=O)N1CC(=O)NC(=O)C1 (stereo not drawn) | <0.1 ppm |
| Cc1cc(C2=NOC(c3cc(Cl)cc(Cl)c3)(C(F)(F)F)C2)ccc1C(=O)N1CC(=O)N(CC(F)(F)F)C(=O)C1 (stereo not drawn) | <0.1 ppm |
| Cc1cc(C2=NOC(c3cc(Cl)cc(C(F)(F)F)c3)(C(F)(F)F)C2)ccc1C(=O)N1CCN(CCC(F)(F)F)C1 (stereo not drawn) [drawing 156, reference compound] | 1-10 ppm |
| Cc1cc(C2=NOC(c3cc(Cl)cc(Cl)c3)(C(F)(F)F)C2)ccc1C(=O)N1CCN(CC(F)(F)F)CC1 (stereo not drawn) [reference compound] | 10-20 ppm |
| Cc1cc(C2=NOC(c3cc(Cl)cc(C(F)(F)F)c3)(C(F)(F)F)C2)ccc1C(=O)N1CC(=O)N(CCC(F)(F)F)C1 (stereo not drawn) [drawing 155] | <0.1 ppm |
